Here are results for 10 molecules from patent publication US6406680B1, “X-ray contrast agents” (Nycomed Imaging AS, priority 1999, dated 2002).

Each structure is given as a SMILES string. Converted amounts (≈) assume the structure as drawn. Where only a bound is given, the exact number is not on record here.

The nature of data set [1]: Aqueous solubility at 20° C. The data set is classed as physicochemical. The settings on record: water.
Data set [2] has as its system mice. As to conditions: cited from earlier work.

As usually defined, the solubility is the concentration that dissolves in the medium under given conditions. Higher therefore signals a readily soluble substance. As for `OCC(I)=C(I)C(I)=C(I)CO` [Compound 16, 2,3,4,5-Tetraiodo-2,4-hexadiene-1,6-diol], the solubility in data set [1] and in data set [1] (Table 1) was 0.183 mg/mL (≈ 0.296 mM) in each case.

For `OCCOCC(I)=C(I)COCCO` [Compound 9, 2,2′-[2,3-Diiodo-2-butene-1,4-diylbis(oxy)]-bis-ethanol], the solubility in data set [1] and in data set [1] (Table 1) was 7.2 mg/mL (≈ 16.8 mM) in each case.

As for `OCC(O)COCC(I)=C(I)I` (centres unmarked) [Compound 6, 3-(2,3,3-Triiodo-2-propenyloxy)-propane-1,2-diol], the solubility in data set [1] and in data set [1] (Table 1) was 0.5 mg/mL (≈ 0.981 mM) throughout.

Consider `OCC(O)COCC(I)=C(I)COCC(O)CO` (centres unmarked) [Compound 14, 3,3′-[2,3-Diiodo-2-butene-1,4-diylbis(oxy)]-bis-propane-1,2-diol], for which the solubility in data set [1] is greater than 1.2 mg/mL; in data set [1] (Table 1) it was greater than 1200 mg/mL.

Turning to `OCC(I)=CI` [Compound 2, 2,3-Diiodo-2-propene-1-ol], the solubility in data set [1] is 3.91 mg/mL (≈ 12.6 mM); in data set [1] (Table 1), 0.391 mg/mL (≈ 1.26 mM).

Turning to `CC(=O)N(CC(O)CO)c1c(I)c(C(=O)NCC(O)CO)c(I)c(C(=O)NCC(O)CO)c1I` (centres unmarked) [Iohexol, iohexol, reference compound], the solubility in data set [1] (Table 1) is greater than 1200 mg/mL. The “toxicity (LD 50 in mice, intravenous)” value in data set [2] is 33700 mg/kg.

Regarding `OCC(I)=C(I)CO` [Compound 12, 2,3-Diiodo-2-butene-1,4-diol], the solubility in data set [1] and in data set [1] (Table 1) was 0.534 mg/mL (≈ 1.57 mM) throughout.

Turning to `OCC(I)=C(I)COCC(O)CO` (centres unmarked) [Compound 13, 3-[(2,3-Diiodo-4-hydroxy-2-butenyl)oxy]-propane-1,2-diol], the figures for the solubility in data set [1] and in data set [1] (Table 1) were greater than 1.2 mg/mL and greater than 1200 mg/mL, respectively.

On to `OCC(O)COCC(I)=CI` (centres unmarked) [Compound 5, 3-(2,3-Diiodo-2-propenyloxy)-propane-1,2-diol], for which the solubility in data set [1] and in data set [1] (Table 1) was 18.4 mg/mL (≈ 47.9 mM) in each case.

For `OCC(I)=C(I)I` [Compound 3, 2,3,3-Triiodo-2-propene-1-ol], the solubility in data set [1] and in data set [1] (Table 1) was 0.198 mg/mL (≈ 0.454 mM) throughout.
